How the values were obtained:
[1] = target: T1, Human neuropeptide Y (NPY-Y1) (Homo sapiens, UniProt P25929); assay: Radioligand binding, human neuropeptide Y NPY-Y1 membranes, FlashPlate, [125I]-PYY; settings: compound at 10 μM, [125I]-PYY
T1 construct: purchased Perkin Elmer Biosignal
T1 sequence (P25929 1-384): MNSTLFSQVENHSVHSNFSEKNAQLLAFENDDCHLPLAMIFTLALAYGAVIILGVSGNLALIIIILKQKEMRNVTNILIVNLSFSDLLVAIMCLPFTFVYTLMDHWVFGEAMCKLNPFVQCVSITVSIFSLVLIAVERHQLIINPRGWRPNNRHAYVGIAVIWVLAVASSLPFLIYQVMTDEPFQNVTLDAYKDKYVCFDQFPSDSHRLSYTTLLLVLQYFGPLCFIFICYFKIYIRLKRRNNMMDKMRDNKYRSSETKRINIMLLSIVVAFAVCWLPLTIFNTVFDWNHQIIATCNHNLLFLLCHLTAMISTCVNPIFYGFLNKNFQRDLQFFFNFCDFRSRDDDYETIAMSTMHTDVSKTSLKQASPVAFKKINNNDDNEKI
Summary of the method: (§1)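 Cloned human receptor membranes were coated onto FlashPlate wells and incubated with radioligand and compound (added from a 0.5 mM DMSO daughter plate) for 1 hour at room temperature in the dark. Scintillation counting gave percent inhibition, with DMSO defining total and reference ligand defining non-specific binding.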

Human Melanocortin (MC4) = target: T2, Human Melanocortin (MC4) (Homo sapiens, UniProt P32245); assay: Radioligand binding, human melanocortin MC4 membranes, FlashPlate, [125I]-NDP-αMSH; settings: compound at 10 μM, [125I]-NDP-αMSH
T2 construct: purchased Perkin Elmer Biosignal
Summary of the method: as §1

Human δ-opioid (DOP) = target: T3, Human δ-opioid (DOP) (Homo sapiens, UniProt P41143); assay: Radioligand binding, human δ-opioid (DOP) membranes, FlashPlate, [3H]-Bremazocine; settings: compound at 10 μM, [3H]-Bremazocine
T3 construct: purchased Perkin Elmer Biosignal
Summary of the method: as §1

Human neurokinin (NK1) = target: T4, Human neurokinin (NK1) (Homo sapiens, UniProt P25103); assay: Radioligand binding, human neurokinin NK1 membranes, filtration, [125I]-Substance P; settings: compound at 10 μM, [125I]-Substance P
T4 construct: purchased Perkin Elmer Biosignal
Summary of the method: (§2)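 Percent inhibition of radioligand binding measured on recombinant human membranes: NK1 with [125I]-Substance P, KOP with [3H]-Diprenorphine. Incubation 1 h at room temperature, then harvest onto 0.3% PEI-soaked filters, cold Tris-HCl pH 7.4 washes and scintillation counting; non-specific binding from reference ligand wells.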

Human κ-Opioid (KOP) = target: T5, Human κ-Opioid (KOP) (Homo sapiens, UniProt P41145); assay: Radioligand binding, human κ-opioid (KOP) membranes, filtration, [3H]-Diprenorphine; settings: compound at 10 μM, [3H]-Diprenorphine
T5 construct: purchased Perkin Elmer Biosignal
Summary of the method: as §2

Human melanocortin (MC5) = target: T6, Human melanocortin (MC5) (Homo sapiens, UniProt P33032); assay: Radioligand binding, human melanocortin MC5 membranes, FlashPlate, [125I]-NDP-αMSH; settings: compound at 10 μM, [125I]-NDP-αMSH
T6 construct: purchased Perkin Elmer Biosignal
Summary of the method: as §1

[2] = target: T7, Human melanin-concentrating hormone (MCH1) (Homo sapiens, UniProt Q99705); assay: Radioligand binding, human melanin-concentrating hormone MCH1 membranes, FlashPlate, [125I]-S36057; settings: compound at 10 μM; for A6: inhibition of radioligand binding, human melanin-concentrating hormone (MCH1): [125I]-S36057
T7 construct: purchased Perkin Elmer Biosignal
Summary of the method: as §1

Human opioid (ORL1) = target: T8, Human opioid (ORL1) (Homo sapiens, UniProt P41146); assay: Radioligand binding, human opioid ORL1 membranes, FlashPlate, [125I]-Nociceptin; settings: compound at 10 μM, [125I]-Nociceptin
T8 construct: purchased Perkin Elmer Biosignal
Summary of the method: as §1

Mouse urotensin (mUR2) = target: T9, Mouse urotensin (mUR2) (Mus musculus, UniProt Q8VIH9); assay: Radioligand binding, mouse urotensin mUR2 membranes, FlashPlate, [125I]-Urotensin II; settings: compound at 10 μM, [125I]-Urotensin II
T9 construct: purchased Perkin Elmer Biosignal
T9 sequence (Q8VIH9 1-385): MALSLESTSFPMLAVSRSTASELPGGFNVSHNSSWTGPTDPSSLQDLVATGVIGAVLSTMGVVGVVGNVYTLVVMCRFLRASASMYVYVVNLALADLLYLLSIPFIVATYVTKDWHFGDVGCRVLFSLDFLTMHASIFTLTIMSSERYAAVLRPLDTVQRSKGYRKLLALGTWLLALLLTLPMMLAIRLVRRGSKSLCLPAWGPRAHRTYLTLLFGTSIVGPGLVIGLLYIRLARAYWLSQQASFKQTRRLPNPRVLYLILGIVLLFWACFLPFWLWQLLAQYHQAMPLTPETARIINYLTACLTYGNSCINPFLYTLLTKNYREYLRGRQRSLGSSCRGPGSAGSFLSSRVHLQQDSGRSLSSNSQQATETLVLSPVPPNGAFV
Summary of the method: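 Cloned mouse urotensin (mUR2) receptor membranes from Perkin Elmer Biosignal were immobilized in FlashPlate microplates using a proprietary coating. Each well got 19.5 μl buffer, then 0.5 μl of DMSO, reference ligand, or compound. Adding 5 μl of [125I]-Urotensin II, diluted to 5× final concentration in binding buffer, started binding. Plates were sealed with TopSeal-A and incubated 1 hour at room temperature in the dark. Wells were counted for 30 seconds each on a TopCount after a 60-second delay, and percentage inhibition was calculated.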

Human μ-opioid (MOP) = target: T10, Human μ-opioid (MOP) (Homo sapiens, UniProt P35372); assay: Radioligand binding, human μ-opioid (MOP) membranes, FlashPlate, [3H]-Naloxone; settings: compound at 10 μM, [3H]-Naloxone
T10 construct: purchased Perkin Elmer Biosignal
Summary of the method: as §1

Human Melanocortin (MC3) = target: T11, Human Melanocortin (MC3) (Homo sapiens, UniProt P41968); assay: Radioligand binding, human melanocortin MC3 membranes, FlashPlate, [125I]-NDP-αMSH; settings: compound at 10 μM, [125I]-NDP-αMSH
T11 construct: purchased Perkin Elmer Biosignal
Summary of the method: as §1

T3 sequence (P41143 whole entry): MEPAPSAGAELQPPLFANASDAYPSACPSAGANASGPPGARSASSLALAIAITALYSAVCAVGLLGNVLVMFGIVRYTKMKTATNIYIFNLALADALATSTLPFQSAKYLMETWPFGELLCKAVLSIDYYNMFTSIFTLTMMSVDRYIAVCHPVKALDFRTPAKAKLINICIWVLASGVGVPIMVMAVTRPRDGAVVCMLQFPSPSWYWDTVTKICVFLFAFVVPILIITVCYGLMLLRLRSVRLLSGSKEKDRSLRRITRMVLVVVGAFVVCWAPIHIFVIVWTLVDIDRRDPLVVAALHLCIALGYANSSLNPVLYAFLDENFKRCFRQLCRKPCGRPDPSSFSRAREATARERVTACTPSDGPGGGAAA
T6 sequence (P33032 whole entry): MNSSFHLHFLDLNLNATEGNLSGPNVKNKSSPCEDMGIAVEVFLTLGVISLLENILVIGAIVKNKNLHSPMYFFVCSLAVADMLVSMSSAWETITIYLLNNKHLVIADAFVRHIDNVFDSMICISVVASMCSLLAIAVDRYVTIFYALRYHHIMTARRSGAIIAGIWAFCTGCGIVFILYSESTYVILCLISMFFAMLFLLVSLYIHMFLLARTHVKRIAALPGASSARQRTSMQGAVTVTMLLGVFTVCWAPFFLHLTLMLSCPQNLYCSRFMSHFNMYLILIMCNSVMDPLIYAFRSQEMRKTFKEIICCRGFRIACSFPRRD
T4 sequence (P25103 whole entry): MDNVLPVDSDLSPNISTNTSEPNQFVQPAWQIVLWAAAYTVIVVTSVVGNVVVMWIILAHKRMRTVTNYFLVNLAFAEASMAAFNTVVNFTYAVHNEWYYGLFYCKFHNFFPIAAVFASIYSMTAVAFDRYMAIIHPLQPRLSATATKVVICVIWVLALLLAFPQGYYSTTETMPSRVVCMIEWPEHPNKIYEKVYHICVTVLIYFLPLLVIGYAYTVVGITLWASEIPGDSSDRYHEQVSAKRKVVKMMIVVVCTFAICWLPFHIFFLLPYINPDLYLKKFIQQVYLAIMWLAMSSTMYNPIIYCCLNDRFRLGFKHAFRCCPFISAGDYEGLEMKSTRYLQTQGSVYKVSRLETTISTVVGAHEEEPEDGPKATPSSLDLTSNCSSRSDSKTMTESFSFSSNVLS
T5 sequence (P41145 whole entry): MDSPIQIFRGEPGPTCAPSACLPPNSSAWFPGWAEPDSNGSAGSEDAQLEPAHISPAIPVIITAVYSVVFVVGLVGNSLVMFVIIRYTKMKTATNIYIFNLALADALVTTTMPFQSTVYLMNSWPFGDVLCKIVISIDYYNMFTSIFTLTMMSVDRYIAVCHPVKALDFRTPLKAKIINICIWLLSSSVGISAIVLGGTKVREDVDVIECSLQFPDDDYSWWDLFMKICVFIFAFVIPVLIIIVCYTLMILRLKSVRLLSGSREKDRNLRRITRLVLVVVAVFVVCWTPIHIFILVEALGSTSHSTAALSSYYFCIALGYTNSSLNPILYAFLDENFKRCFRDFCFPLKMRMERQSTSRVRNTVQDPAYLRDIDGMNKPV
T8 sequence (P41146 whole entry): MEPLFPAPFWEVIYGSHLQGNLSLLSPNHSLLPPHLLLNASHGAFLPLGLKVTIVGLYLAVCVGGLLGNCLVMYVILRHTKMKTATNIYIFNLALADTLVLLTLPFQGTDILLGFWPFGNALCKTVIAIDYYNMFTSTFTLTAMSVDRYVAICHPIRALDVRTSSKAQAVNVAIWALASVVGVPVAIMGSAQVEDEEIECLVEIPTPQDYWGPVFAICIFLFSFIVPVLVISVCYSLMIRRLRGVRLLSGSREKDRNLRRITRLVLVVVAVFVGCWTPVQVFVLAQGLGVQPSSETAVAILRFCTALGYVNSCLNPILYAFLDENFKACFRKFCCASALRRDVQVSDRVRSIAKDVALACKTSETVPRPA
T11 sequence (P41968 whole entry): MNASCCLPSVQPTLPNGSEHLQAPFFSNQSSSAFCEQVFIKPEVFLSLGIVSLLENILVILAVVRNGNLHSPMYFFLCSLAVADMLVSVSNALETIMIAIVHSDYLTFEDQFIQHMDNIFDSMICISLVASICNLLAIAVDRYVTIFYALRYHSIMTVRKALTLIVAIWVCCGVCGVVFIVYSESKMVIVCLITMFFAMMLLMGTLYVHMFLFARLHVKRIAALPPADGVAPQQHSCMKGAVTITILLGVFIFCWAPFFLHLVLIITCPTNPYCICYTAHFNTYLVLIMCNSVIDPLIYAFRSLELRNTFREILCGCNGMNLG
T10 sequence (P35372 whole entry): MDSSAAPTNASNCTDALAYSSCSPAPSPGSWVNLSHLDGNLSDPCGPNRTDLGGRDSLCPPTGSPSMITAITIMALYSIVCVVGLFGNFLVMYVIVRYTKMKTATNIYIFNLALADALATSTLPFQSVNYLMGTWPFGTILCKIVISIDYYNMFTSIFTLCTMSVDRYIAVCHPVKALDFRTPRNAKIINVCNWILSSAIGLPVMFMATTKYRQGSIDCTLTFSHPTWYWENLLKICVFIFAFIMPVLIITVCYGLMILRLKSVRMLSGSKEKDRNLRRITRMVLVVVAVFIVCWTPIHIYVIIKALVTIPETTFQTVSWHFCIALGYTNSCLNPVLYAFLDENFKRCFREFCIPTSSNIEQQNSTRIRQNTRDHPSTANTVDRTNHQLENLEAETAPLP
T7 sequence (Q99705 whole entry): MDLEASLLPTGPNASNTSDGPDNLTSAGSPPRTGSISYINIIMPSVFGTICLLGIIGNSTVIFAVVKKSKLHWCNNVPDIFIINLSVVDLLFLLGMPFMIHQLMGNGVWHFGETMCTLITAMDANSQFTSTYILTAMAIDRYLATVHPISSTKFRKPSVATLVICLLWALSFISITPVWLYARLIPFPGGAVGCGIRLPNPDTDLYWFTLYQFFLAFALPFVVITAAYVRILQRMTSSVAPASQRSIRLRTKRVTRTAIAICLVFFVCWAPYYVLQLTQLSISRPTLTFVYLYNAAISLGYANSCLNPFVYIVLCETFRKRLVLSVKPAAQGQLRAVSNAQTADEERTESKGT
T2 sequence (P32245 whole entry): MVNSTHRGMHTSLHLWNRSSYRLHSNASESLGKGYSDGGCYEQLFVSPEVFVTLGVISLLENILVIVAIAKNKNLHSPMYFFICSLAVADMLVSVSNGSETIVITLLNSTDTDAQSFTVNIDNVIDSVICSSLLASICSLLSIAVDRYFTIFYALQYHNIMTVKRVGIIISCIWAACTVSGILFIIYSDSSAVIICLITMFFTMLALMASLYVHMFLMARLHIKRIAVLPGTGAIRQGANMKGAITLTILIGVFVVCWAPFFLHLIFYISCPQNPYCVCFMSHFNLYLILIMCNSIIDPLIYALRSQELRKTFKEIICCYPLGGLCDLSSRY

Row | Structure (SMILES) | A9: inhibition of radioligand binding, human neuropeptide Y (NPY-Y1) [1] | A4: inhibition of radioligand binding, human melanocortin (MC4) (Human Melanocortin (MC4)) | A1: inhibition of radioligand binding, human δ-opioid (DOP) (Human δ-opioid (DOP)) | A8: inhibition of radioligand binding, human neurokinin (NK1) (Human neurokinin (NK1)) | A2: inhibition of radioligand binding, human κ-opioid (KOP) (Human κ-Opioid (KOP); 10 µM) | A5: inhibition of radioligand binding, human melanocortin (MC5) (Human melanocortin (MC5)) | A6: inhibition of radioligand binding, human melanin-concentrating hormone (MCH1) [2] | A10: inhibition of radioligand binding, human opioid (ORL1) (Human opioid (ORL1)) | A11: inhibition of radioligand binding, mouse urotensin (mUR2) (Mouse urotensin (mUR2)) | A7: inhibition of radioligand binding, human μ-opioid (MOP) (Human μ-opioid (MOP)) | A3: inhibition of radioligand binding, human melanocortin (MC3) (Human Melanocortin (MC3)) | further results
1 | NCCC(=O)NC1C(OCc2ccc(Cl)cc2)OC(COCc2ccc(Cl)cc2)C(O)C1OCc1ccc2ccccc2c1 (single isomer, unassigned) [compound 482] | − (“−” indicates less than 50% inhibition at 10 μM) | + (“+” indicates greater than 50% inhibition at 10 μM) | − (“−” indicates less than 50% inhibition at 10 μM) | + (“+” indicates greater than 50% inhibition at 10 μM) | − (“−” indicates less than 50% inhibition at 10 μM) | + (“+” indicates greater than 50% inhibition at 10 μM) | + (“+” indicates greater than 50% inhibition at 10 μM) | + (“+” indicates greater than 50% inhibition at 10 μM) | − (“−” indicates less than 50% inhibition at 10 μM) | − (“−” indicates less than 50% inhibition at 10 μM) | + (“+” indicates greater than 50% inhibition at 10 μM) | –
2 | NCCCC(=O)NC1C(OCc2ccc(Cl)cc2)OC(COCc2ccccc2)C(O)C1OCc1ccc(Cl)cc1 (single isomer, unassigned) [compound 492] | − (“−” indicates less than 50% inhibition at 10 μM) | – | − (“−” indicates less than 50% inhibition at 10 μM) | + (“+” indicates greater than 50% inhibition at 10 μM) | – | – | – | + (“+” indicates greater than 50% inhibition at 10 μM) | − (“−” indicates less than 50% inhibition at 10 μM) | − (“−” indicates less than 50% inhibition at 10 μM) | − (“−” indicates less than 50% inhibition at 10 μM) | A4: inhibition of radioligand binding, human melanocortin (MC4) (Human Melanocortin (MC4); 10 µM): + (“+” indicates greater than 50% inhibition at 10 μM); A2: inhibition of radioligand binding, human κ-opioid (KOP) (Human κ-Opioid (KOP)): − (“−” indicates less than 50% inhibition at 10 μM); A5: inhibition of radioligand binding, human melanocortin (MC5) (Human melanocortin (MC5); 10 µM): + (“+” indicates greater than 50% inhibition at 10 μM); A6: inhibition of radioligand binding, human melanin-concentrating hormone (MCH1) ([2]; 10 µM): + (“+” indicates greater than 50% inhibition at 10 μM)
3 | N=C(N)NCC(=O)NC1C(OCc2ccc(Cl)cc2)OC(COCc2ccc3ccccc3c2)C(O)C1OCc1ccc(Cl)cc1 (single isomer, unassigned) [compound 508] | − (“−” indicates less than 50% inhibition at 10 μM) | + (“+” indicates greater than 50% inhibition at 10 μM) | − (“−” indicates less than 50% inhibition at 10 μM) | + (“+” indicates greater than 50% inhibition at 10 μM) | + (“+” indicates greater than 50% inhibition at 10 μM) | + (“+” indicates greater than 50% inhibition at 10 μM) | + (“+” indicates greater than 50% inhibition at 10 μM) | + (“+” indicates greater than 50% inhibition at 10 μM) | − (“−” indicates less than 50% inhibition at 10 μM) | − (“−” indicates less than 50% inhibition at 10 μM) | – | A3: inhibition of radioligand binding, human melanocortin (MC3) (Human Melanocortin (MC3); 10 µM): + (“+” indicates greater than 50% inhibition at 10 μM)
4 | NCCCC(=O)NC1C(OCc2ccc3ccccc3c2)OC(COCc2ccc(Cl)cc2)C(O)C1OCc1ccc(Cl)cc1 (single isomer, unassigned) [compound 459] | – | – | – | – | – | – | – | – | – | – | – | A9: inhibition of radioligand binding ([1]; human NPY-Y1 membranes): − (“−” indicates less than 50% inhibition at 10 μM); A4: inhibition of radioligand binding (Human Melanocortin (MC4); human MC4 membranes): + (“+” indicates greater than 50% inhibition at 10 μM); A1: inhibition of radioligand binding (Human δ-opioid (DOP); human DOP membranes): − (“−” indicates less than 50% inhibition at 10 μM); A8: inhibition of radioligand binding (Human neurokinin (NK1); human NK1 membranes): + (“+” indicates greater than 50% inhibition at 10 μM); A2: inhibition of radioligand binding (Human κ-Opioid (KOP); human KOP membranes): − (“−” indicates less than 50% inhibition at 10 μM); A5: inhibition of radioligand binding (Human melanocortin (MC5); human MC5 membranes): + (“+” indicates greater than 50% inhibition at 10 μM); A6: inhibition of radioligand binding ([2]; [125I]-S36057, human MCH1 membranes, 10 µM): + (“+” indicates greater than 50% inhibition at 10 μM); A10: inhibition of radioligand binding (Human opioid (ORL1); human ORL1 membranes, 10 µM): + (“+” indicates greater than 50% inhibition at 10 μM); A11: inhibition of radioligand binding (Mouse urotensin (mUR2); mouse mUR2 membranes): − (“−” indicates less than 50% inhibition at 10 μM); A7: inhibition of radioligand binding (Human μ-opioid (MOP); human MOP membranes, 10 µM): − (“−” indicates less than 50% inhibition at 10 μM); A3: inhibition of radioligand binding (Human Melanocortin (MC3); human MC3 membranes): + (“+” indicates greater than 50% inhibition at 10 μM)
5 | COCC1OC(OCc2ccc(Cl)cc2)C(NC(=O)CNC(=N)N)C(OCc2ccc(Cl)cc2)C1O (stereo not shown) [compound 200] | – | – | – | – | – | – | – | – | – | – | – | A9: inhibition of radioligand binding ([1]; FlashPlate): − (“−” indicates less than 50% inhibition at 10 μM); A4: inhibition of radioligand binding (Human Melanocortin (MC4); FlashPlate): + (“+” indicates greater than 50% inhibition at 10 μM); A1: inhibition of radioligand binding (Human δ-opioid (DOP); FlashPlate): − (“−” indicates less than 50% inhibition at 10 μM); A8: inhibition of radioligand binding (Human neurokinin (NK1); filtration): + (“+” indicates greater than 50% inhibition at 10 μM); A2: inhibition of radioligand binding (Human κ-Opioid (KOP); filtration): − (“−” indicates less than 50% inhibition at 10 μM); A5: inhibition of radioligand binding (Human melanocortin (MC5); FlashPlate): + (“+” indicates greater than 50% inhibition at 10 μM); A6: inhibition of radioligand binding ([2]; [125I]-S36057, FlashPlate): − (“−” indicates less than 50% inhibition at 10 μM); A10: inhibition of radioligand binding (Human opioid (ORL1); FlashPlate): − (“−” indicates less than 50% inhibition at 10 μM); A11: inhibition of radioligand binding (Mouse urotensin (mUR2); FlashPlate): − (“−” indicates less than 50% inhibition at 10 μM); A7: inhibition of radioligand binding (Human μ-opioid (MOP); FlashPlate): − (“−” indicates less than 50% inhibition at 10 μM); A3: inhibition of radioligand binding (Human Melanocortin (MC3); FlashPlate): + (“+” indicates greater than 50% inhibition at 10 μM)

Reference: patent publication US20080009418A1, “Selective Inhibitors” (Alchemia LTD., priority 2004, published 2008)
